Measured values as given in US20240051937A1, “ISOINDOLINONE AMIDE COMPOUNDS USEFUL TO TREAT DISEASES ASSOCIATED WITH GSPT1” (Monte Rosa Therapeutics, Inc., priority 2021, published 2024).
Where two headings read alike, the source gives them in different places.

How the values were obtained:
[1] = biological target: T1, CK1alpha (Homo sapiens, UniProt P48729+Q96SW2); assay: Selectivity determination by Western blot assay in MM1S cells: CK1alpha; assay type: cell-based; conditions: MM1S cells, 0.3, 3 and 30 μM, 6 hours
T1 construct: MM1S cells were purchased from ATCC (cat. Number CRL-2974); host or cells: MM1S cells
T1 sequence (P48729 whole entry): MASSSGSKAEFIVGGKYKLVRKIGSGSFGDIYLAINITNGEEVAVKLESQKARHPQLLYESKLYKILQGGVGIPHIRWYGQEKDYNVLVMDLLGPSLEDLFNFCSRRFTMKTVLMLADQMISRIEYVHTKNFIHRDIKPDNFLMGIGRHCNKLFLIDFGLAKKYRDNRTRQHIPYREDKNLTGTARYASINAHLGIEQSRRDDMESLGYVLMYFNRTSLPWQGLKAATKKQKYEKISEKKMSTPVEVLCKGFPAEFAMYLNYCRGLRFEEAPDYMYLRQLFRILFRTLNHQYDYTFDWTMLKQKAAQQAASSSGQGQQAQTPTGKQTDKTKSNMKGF
T1 sequence (Q96SW2 whole entry): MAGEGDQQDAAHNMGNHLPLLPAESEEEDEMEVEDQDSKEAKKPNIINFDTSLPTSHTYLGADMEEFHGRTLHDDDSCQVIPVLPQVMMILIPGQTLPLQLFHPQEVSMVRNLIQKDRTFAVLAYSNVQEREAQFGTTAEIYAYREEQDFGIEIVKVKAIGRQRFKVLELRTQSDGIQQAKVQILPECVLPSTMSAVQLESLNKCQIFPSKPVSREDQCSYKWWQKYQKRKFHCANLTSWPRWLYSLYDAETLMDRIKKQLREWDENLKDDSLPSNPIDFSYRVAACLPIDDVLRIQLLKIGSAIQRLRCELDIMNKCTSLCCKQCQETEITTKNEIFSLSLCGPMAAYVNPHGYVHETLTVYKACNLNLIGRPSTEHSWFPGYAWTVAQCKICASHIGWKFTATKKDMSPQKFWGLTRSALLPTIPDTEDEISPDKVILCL
T1 sequence (Q16531 whole entry partner): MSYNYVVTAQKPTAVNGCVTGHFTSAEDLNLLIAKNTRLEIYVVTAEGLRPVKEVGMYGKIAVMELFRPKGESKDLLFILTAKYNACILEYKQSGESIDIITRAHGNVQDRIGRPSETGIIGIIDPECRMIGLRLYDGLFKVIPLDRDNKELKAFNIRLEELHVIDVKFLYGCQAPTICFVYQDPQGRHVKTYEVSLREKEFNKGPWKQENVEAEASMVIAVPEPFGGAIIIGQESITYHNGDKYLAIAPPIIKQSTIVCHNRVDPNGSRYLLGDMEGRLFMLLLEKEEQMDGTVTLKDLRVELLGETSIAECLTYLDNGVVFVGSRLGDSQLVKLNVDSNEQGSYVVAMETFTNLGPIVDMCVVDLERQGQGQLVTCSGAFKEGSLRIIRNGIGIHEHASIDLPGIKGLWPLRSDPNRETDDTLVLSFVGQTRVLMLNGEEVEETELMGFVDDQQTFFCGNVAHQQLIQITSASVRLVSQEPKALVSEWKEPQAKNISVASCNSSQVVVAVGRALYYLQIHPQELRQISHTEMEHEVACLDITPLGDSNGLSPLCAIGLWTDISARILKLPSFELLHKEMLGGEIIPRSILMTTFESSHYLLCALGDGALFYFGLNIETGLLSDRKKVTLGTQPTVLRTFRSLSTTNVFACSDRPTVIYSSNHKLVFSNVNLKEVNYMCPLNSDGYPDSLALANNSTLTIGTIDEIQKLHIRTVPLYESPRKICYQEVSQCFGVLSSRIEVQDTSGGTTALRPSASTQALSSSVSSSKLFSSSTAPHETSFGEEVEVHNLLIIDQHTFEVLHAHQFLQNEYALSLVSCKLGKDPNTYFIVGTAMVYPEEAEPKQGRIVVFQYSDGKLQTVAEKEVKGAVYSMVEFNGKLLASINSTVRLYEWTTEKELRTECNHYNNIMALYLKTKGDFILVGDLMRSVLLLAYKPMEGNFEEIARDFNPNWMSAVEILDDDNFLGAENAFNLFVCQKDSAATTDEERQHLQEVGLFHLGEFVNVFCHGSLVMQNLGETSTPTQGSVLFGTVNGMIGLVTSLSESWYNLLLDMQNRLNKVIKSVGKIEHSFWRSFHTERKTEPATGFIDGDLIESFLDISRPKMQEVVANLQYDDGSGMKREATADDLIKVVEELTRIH
Protocol: (§1) MM1S cells were purchased from ATCC (cat. Number CRL-2974), sub-cultured in […] RPMI 1640 with 10% FBS, supplemented with Ix P/S and incubated at 37° C., […]. Compounds were stored as 10 mM DMSO stock. For the assay, MM1S cells (3 million cells/well) were plated in 6-well plates and incubated over night. Cells were treated with respective compounds using a serial dilution: 0.3 μM, 3 μM and 30 μM as well as a vehicle only (DMSO) control for 6 hours. Media with suspension cells was subsequently transferred to 15 mL conical tubes, wells rinsed twice with ice-cold PBS and merged with cell suspension in respective 15 mL conical tube. Cells were spinned down, supernatant aspirated, pellets resuspended in ice-cold PBS and transferred to microtubes. Cells were spinned down, supernatant aspirated and pellets resuspended in 120 μL RIPA lysis buffer supplemented with protease and phosphatase inhibitors. Cell lysates were incubated on ice for 20 minutes followed by centrifugation at >20,000×g for 5 min. Supernatants were transferred to fresh microtubes and stored at −80° C. Total protein concentration was determined using a BCA assay with a BSA standard curve and concentration of all samples was adjusted to 1 mg/mL. […] Chemiluminescence signals were then detected using a LAS-4000 system with default settings and signals quantified using Image Studio Lite software (version 5.2). […]

[2] = biological target: T2, IKZF1 (Homo sapiens, UniProt Q13422+Q96SW2); assay: Selectivity determination by Western blot assay in MM1S cells: IKZF1; assay type: cell-based; design: key: A represents no degradation observed at 30 μM; B represents trace degradation at 30 μM (below 20%); C represents weak degradation at 30 μM (below 50%); D represents degradation at 30 μM (>90%); E represents degradation at 3 μM (>90%); F represents degradation at 0.3 μM (>90%); conditions: MM1S cells, 0.3, 3 and 30 μM, 6 hours
T2 construct: MM1S cells were purchased from ATCC (cat. Number CRL-2974); host or cells: MM1S cells
T2 sequence (Q13422 whole entry): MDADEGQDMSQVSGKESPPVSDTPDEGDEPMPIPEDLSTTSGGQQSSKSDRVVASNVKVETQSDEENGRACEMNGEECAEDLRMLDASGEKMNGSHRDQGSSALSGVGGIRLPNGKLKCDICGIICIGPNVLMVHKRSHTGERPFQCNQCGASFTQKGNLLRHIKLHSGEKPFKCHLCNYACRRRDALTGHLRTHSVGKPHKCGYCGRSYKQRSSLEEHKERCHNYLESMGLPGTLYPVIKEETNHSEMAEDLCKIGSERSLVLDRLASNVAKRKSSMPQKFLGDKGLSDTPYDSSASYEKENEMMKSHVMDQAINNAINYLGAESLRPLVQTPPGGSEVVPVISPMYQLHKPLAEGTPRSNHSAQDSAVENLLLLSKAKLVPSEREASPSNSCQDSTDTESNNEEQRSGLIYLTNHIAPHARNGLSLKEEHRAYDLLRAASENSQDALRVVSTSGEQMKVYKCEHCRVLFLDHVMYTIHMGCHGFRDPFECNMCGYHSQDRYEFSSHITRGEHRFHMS
T2 sequence (Q96SW2 whole entry): as the sequence (Q96SW2 whole entry) above
T2 sequence (Q16531 whole entry partner): as the sequence (Q16531 whole entry partner) above
Protocol: as §1

[3] = biological target: T3, Full length wild-type cereblon CRBN (Homo sapiens, UniProt Q96SW2); assay: Fluorescence polarization (FP) assay indicating cereblon binding
T3 construct: Full length wild-type cereblon CRBN (80.0 nM, 10 μL) was incubated in assay buffer
T3 sequence (Q96SW2 whole entry): as the sequence (Q96SW2 whole entry) above
Excerpt: Protocol for Fluorescent Polarization Assay
Compound activity was monitored in a fluorescence polarization (FP) homogeneous assay using 1-[5-({2-[2-(2-{[2-(2,6-dioxopiperidin-3-yl)-1,3-dioxo-2,3-dihydro-1H-isoindol-4-yl]oxy}acetamido)ethoxy]ethyl}carbamoyl)pentyl]-3,3-dimethyl-2-[(1E,3E)-5-[(2E)-1,3,3-trimethyl-5-sulfo-2,3-dihydro-1H-indol-2-ylidene]penta-1,3-dien-1-yl]-3H-indol-1-ium-5-sulfonate as a fluorescent probe. Unless otherwise stated, all reagents were purchased from Sigma Aldrich. Enzymatic reactions were conducted in Perkin-Elmer Black 384 well ProxiPlate Plus (catalogue no. 6008269) in 10 μL total volume. Full length wild-type cereblon CRBN (80.0 nM, 10 μL) was incubated in assay buffer containing 20 mM HEPES (pH 8.0), […], 0.5 mM TCEP and 0.05% Tween 20 in the presence or absence of compound (300 nL). Inhibitors were stored as 10 mM DMSO stocks in an inert environment (low humidity, dark, low oxygen, room temperature) using the Storage Pod System. Compounds and DMSO were dispensed using the Echo E5XX (Labcyte Inc. USA) to give concentrations from 300 to 0.937 or 3000 to 9.3 nM in a 12 data point curve. […] Following incubation at room temperature for 30 min, the assay was initiated by dispensing the probe to a final concentration of 5 nM (2.5 nL of a 20 μM stock) using the Echo E5XX. FP was measured after a period of 12 hours using a Pherastar plate reader (BMG Labtech, Germany) exciting at 590 nm and measuring the amount of parallel and perpendicular light at 675 nm. The FP signal was subsequently normalized to the no-compound control (i.e., DMSO). Analysis and IC50 values were derived using Dotmatics (Dotmatics UK) software.

[4] = biological target: T4, ZFP91 (Homo sapiens, UniProt Q96JP5+Q96SW2); assay: Selectivity determination by Western blot assay in MM1S cells: ZFP91; assay type: cell-based; conditions: MM1S cells, 0.3, 3 and 30 μM, 6 hours
T4 construct: MM1S cells were purchased from ATCC (cat. Number CRL-2974); host or cells: MM1S cells
T4 sequence (Q96JP5 2-570 limits assumed): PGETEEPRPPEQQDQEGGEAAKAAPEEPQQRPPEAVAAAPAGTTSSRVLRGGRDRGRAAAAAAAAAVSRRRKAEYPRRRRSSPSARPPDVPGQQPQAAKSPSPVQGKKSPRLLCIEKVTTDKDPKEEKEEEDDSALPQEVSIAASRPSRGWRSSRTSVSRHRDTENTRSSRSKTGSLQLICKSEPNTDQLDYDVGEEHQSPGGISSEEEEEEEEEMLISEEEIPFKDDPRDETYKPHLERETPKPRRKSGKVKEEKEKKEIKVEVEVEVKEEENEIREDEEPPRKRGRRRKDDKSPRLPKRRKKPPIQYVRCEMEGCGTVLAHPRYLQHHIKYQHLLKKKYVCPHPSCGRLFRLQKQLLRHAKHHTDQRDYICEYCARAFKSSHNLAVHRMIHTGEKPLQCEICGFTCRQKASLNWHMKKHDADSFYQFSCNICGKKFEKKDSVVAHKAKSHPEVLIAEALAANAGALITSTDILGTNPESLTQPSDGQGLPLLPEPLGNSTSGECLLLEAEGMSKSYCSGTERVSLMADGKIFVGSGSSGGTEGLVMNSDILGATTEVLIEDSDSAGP
T4 sequence (Q96SW2 whole entry): as the sequence (Q96SW2 whole entry) above
T4 sequence (Q16531 whole entry partner): as the sequence (Q16531 whole entry partner) above
Protocol: as §1

[5] = biological target: GSPT1 (Homo sapiens, UniProt P15170+Q96SW2); assay: Selectivity determination by Western blot assay in MM1S cells: GSPT1; assay type: cell-based; design: MM1S cells were purchased from ATCC (cat. Number CRL-2974); host or cells: MM1S cells; conditions: MM1S cells, 0.3, 3 and 30 μM, 6 hours
Sequence of GSPT1 (P15170 whole entry): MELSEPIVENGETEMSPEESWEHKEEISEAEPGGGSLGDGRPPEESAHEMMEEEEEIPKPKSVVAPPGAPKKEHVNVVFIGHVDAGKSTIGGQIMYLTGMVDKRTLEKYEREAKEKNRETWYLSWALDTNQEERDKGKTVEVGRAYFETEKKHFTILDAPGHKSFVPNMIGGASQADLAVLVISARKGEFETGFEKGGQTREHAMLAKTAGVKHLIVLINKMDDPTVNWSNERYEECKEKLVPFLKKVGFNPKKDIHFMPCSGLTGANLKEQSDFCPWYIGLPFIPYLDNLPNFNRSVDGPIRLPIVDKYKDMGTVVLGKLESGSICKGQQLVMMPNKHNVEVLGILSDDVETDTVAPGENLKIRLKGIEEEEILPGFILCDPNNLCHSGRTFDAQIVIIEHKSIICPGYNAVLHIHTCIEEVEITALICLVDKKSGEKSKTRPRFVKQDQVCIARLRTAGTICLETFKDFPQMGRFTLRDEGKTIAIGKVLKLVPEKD
Sequence of GSPT1 (Q96SW2 whole entry): as the sequence (Q96SW2 whole entry) above
Sequence of GSPT1 (Q16531 whole entry partner): as the sequence (Q16531 whole entry partner) above
Protocol: as §1

[6] = cereblon binding, CRBN 80.0 nM, probe 5 nM, FP read after 12 hours, read-out: rFP IC50
[7] = fluorescence polarization assay, read-out: IC50 value (cereblon binding)

IKZF1 degradation code [2]	IC50 [3, 6]	IC50 [3, 7]	SMILES	CK1alpha degradation code [1]	ZFP91 degradation code [4]	GSPT1 degradation code [5]
A	≤ 500 nM	< 1100 nM	Cc1ccc(NC(=O)CCc2ccc3c(c2)C(=O)N(C2CCC(=O)NC2=O)C3)cc1Cl (stereo not drawn) [Compound 1]	B (B represents trace degradation at 30 μM (below 20%))	B (B represents trace degradation at 30 μM (below 20%))	F (F represents degradation at 0.3 μM (>90%))
A	≤ 500 nM	< 1100 nM	Cc1c(Cl)cc(NC(=O)CCc2ccc3c(c2)C(=O)N(C2CCC(=O)NC2=O)C3)cc1CN1CCOCC1 (stereo not drawn) [Compound 2]	C (C represents weak degradation at 30 μM (below 50%))	C (C represents weak degradation at 30 μM (below 50%))	F (F represents degradation at 0.3 μM (>90%))
